Laboratory results from patent EP2140864A2 (H. Lundbeck A/S, priority 2001, dated 2002).
Like-named read-outs stand apart in the source and are kept apart here.

How the values were obtained:
human 5HT7 = target: T1, human 5HT7 (Homo sapiens, UniProt P34969); experiment: Radioligand binding, 5HT7 receptor ([3H]-serotonin)
T1 construct: expressed in transfected cells
Method: (§1) Human 5HT1B, 5HT1D, 5HT1E, 5HT1F, and 5HT7 Receptors: The cell lysates of LM(tk-) clonal cell line stably transfected with the genes encoding each of these 5HT receptor-subtypes were prepared as described above. Cell membranes were suspended in 50mM Tris-HCl buffer (pH 7.4 at 37°C) containing 10 mM MgCl2, 0.2 mM EDTA, 10 µM pargyline, and 0.1% ascorbate. […] Nonspecific binding was determined in the presence of 10 µM serotonin. The bound radioligand was separated by filtration through GF/B filters using a cell harvester.
(§2) Binding data were analyzed using nonlinear regression and statistical techniques available in the GraphPAD Prism package (San Diego, CA). Enzymatic assay data were derived from a standard curve of reference compound data.

human 5HT1B = target: T2, human 5HT1B (Homo sapiens, UniProt P28222); experiment: Radioligand binding, 5HT1B receptor ([3H]-serotonin)
T2 construct: expressed in transfected cells
Method: as §1, §2

human dopamine D1 = target: T3, human dopamine D1 (Homo sapiens, UniProt P21728); experiment: Radioligand binding, dopamine D1 receptor
T3 construct: purchased BioSignal, Inc. (Montreal, Canada); host or cells: membranes of cells expressing the receptor
From the text: (§3) Other receptors: Cell membranes expressing human dopamine D1, D2, D4 and rat D3 receptors were purchased through BioSignal, Inc. (Montreal, Canada). Binding assays using the histamine H1 receptor; dopamine receptors; and α1A, α1E, and α2 adrenergic receptors may be carried out according to the procedures described in U.S. Patent No. 5,780,485, the disclosure of which is hereby incorporated by reference in its entirety into this application. Binding assays using the dopamine D5 receptor may be carried out according to the procedures described in U.S. Patent No. 5,882,855, the disclosure of which is hereby incorporated by reference in its entirety into this application. Binding assays for the human α1D adrenergic receptor may be carried out according to the procedures described in U.S. Patent No. 6,156,518, the disclosure of which is hereby incorporated by reference in its entirety into this application.
as §2

human 5HT1F = target: T4, human 5HT1F (Homo sapiens, UniProt P30939); experiment: Radioligand binding, 5HT1F receptor ([3H]-serotonin)
T4 construct: expressed in transfected cells
T4 sequence (P30939 1-366): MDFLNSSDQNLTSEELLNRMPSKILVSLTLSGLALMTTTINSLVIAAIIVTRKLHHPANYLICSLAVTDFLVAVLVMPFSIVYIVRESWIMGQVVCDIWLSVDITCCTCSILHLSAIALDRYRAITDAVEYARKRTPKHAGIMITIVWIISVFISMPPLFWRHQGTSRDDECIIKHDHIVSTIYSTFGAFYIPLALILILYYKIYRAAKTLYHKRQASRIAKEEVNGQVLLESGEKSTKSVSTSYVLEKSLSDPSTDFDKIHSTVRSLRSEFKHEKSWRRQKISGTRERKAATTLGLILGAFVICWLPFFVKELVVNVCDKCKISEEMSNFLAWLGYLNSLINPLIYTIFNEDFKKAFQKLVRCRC
Method: as §1, §2

human α1B adrenoceptor = target: T5, human α1B adrenoceptor (Homo sapiens, UniProt P35368); experiment: Radioligand binding, α1B adrenergic receptor
T5 construct: expressed in transfected cells
T5 sequence (P35368 1-520): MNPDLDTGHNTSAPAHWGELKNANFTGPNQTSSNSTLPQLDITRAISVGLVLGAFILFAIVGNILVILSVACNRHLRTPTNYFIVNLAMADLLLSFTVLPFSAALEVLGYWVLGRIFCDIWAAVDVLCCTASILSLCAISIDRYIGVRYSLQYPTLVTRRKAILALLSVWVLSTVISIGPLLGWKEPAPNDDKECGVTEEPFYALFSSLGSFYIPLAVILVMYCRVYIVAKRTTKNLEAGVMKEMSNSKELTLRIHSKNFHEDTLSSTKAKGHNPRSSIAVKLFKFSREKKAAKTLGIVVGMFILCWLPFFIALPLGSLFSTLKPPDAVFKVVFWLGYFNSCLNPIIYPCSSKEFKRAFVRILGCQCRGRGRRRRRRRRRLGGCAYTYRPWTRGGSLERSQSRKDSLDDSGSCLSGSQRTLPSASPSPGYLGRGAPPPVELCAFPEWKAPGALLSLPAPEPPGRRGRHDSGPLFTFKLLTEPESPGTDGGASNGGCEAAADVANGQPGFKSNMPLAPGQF

rat 5HT2C receptor = target: T6, rat 5HT2C receptor (Rattus norvegicus, UniProt P08909); experiment: Radioligand binding, 5HT2C receptor
T6 construct: expressed in transfected cells
T6 sequence (P08909 33-460): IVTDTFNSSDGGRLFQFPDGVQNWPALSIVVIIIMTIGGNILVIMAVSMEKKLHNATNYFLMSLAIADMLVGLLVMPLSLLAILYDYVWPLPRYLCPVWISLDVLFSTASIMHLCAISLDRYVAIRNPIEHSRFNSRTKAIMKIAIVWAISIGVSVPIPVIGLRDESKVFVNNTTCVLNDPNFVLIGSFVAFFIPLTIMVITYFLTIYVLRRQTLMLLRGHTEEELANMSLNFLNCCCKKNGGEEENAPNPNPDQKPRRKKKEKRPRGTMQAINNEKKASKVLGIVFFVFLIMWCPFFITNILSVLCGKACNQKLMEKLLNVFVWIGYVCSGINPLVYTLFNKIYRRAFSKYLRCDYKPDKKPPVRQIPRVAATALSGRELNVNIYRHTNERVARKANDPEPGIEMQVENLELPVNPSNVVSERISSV
Method: Other 5-HT Receptors: Other serotonin receptor binding assays were performed according to published methods: rat 5HT2C receptor (Julius et al., 1988); and 5-HT6 (Monsma, et al., 1993). The binding assays using the 5-HT4 receptor were performed according to the procedures described in U.S. Patent No. 5,766,879, the disclosure of which is hereby incorporated by reference in its entirety into this application.
as §2

dopamine D5 receptor = target: T7, dopamine D5 receptor (Homo sapiens, UniProt P21918); experiment: Radioligand binding, dopamine D5 receptor
T7 construct: expressed in transfected cells
From the text: as §3, §2

[1] = Table 8; Ki h5HT7 divided by Ki hGAL3
[2] = Table 8; Ki h5HT1B divided by Ki hGAL3
[3] = Table 10; Ki hD1 divided by Ki hGAL3
[4] = Table 8; Ki h5HT1F divided by Ki hGAL3
[5] = Table 10; Ki hα1B divided by Ki hGAL3
[6] = Table 8; Ki r5HT2C divided by Ki hGAL3
[7] = Table 10; Ki hD5 divided by Ki hGAL3

T7 sequence (P21918 whole entry): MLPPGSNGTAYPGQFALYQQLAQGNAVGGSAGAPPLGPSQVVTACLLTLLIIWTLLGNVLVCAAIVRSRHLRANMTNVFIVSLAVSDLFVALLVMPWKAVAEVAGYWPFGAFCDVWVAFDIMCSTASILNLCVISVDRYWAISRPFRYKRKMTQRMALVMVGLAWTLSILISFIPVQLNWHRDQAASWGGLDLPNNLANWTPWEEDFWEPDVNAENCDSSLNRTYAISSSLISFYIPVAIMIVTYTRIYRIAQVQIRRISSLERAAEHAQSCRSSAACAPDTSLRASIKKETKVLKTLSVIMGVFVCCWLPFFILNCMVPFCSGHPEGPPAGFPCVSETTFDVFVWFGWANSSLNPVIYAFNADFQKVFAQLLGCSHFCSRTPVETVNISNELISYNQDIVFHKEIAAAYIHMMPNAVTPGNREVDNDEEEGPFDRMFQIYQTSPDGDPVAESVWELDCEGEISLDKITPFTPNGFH
T1 sequence (P34969 1-445 isoform P34969-2): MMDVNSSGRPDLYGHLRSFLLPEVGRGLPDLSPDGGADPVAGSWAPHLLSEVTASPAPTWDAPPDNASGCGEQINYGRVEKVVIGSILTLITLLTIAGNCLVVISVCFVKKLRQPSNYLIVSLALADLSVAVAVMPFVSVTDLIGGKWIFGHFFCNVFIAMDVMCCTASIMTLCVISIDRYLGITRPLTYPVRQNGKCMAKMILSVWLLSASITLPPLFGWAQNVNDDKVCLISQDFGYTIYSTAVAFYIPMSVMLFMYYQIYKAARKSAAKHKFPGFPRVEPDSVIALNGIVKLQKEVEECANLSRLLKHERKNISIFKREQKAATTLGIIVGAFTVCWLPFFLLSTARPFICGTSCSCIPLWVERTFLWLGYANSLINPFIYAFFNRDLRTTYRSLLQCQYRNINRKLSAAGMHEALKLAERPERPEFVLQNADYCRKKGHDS
T2 sequence (P28222 whole entry): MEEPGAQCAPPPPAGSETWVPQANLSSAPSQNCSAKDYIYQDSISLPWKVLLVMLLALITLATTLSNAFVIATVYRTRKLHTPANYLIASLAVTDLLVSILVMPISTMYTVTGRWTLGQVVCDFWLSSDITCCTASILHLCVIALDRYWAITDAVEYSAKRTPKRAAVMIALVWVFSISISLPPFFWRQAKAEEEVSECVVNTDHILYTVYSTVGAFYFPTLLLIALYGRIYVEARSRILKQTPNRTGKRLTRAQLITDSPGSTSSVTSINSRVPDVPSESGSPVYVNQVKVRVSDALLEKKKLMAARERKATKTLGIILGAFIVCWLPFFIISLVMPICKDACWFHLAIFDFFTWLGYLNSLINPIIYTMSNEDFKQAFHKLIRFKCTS
T3 sequence (P21728 whole entry): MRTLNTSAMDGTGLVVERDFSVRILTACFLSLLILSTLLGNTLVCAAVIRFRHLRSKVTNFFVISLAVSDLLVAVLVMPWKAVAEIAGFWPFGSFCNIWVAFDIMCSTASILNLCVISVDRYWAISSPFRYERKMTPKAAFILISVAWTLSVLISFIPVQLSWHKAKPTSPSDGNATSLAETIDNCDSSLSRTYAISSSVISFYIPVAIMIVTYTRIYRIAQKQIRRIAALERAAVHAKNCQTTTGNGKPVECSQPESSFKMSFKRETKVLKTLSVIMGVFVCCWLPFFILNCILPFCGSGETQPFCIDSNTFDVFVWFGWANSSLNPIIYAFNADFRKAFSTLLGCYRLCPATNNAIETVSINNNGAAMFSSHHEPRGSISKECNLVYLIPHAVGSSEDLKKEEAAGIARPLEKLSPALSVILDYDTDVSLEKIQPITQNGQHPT

Structure (SMILES)	Ki (human 5HT7; Table 7; read-out: h5HT7 Ki) [nM]	selectivity ratio h5HT7 (human 5HT7; [1])	Ki (human 5HT1B; Table 7; read-out: h5HT1B Ki) [nM]	selectivity ratio h5HT1B (human 5HT1B; [2])	Ki (human dopamine D1; Table 9; read-out: hD1 Ki) [nM]	selectivity ratio hD1 (human dopamine D1; [3])	Ki (human 5HT1F; Table 7; read-out: h5HT1F Ki) [nM]	selectivity ratio h5HT1F (human 5HT1F; [4])	Ki (human α1B adrenoceptor; Table 9; read-out: hα1B Ki) [nM]	selectivity ratio hα1B (human α1B adrenoceptor; [5])	Ki (rat 5HT2C receptor; Table 7; read-out: r5HT2C Ki) [nM]	selectivity ratio r5HT2C (rat 5HT2C receptor; [6])	Ki (dopamine D5 receptor; Table 9; read-out: hD5 Ki) [nM]	selectivity ratio hD5 (dopamine D5 receptor; [7])	other results
O=C1C(=Nc2ccc(C(F)(F)F)cc2)c2ccccc2N1c1ccccc1 [Example 95, 1-PHENYL-3-[[4-(TRIFLUOROMETHYL)PHENYL]IMINO]-1,3-DIHYDRO-2H-INDOL-2-ONE]	11600	>100	5230	>100	4390	>100	4450	>100	32500	>100	3470	>100	2590	>30	
Cc1ccc(Nc2cc(N(C)C)nc(N(C)CCc3c[nH]c4ccccc34)n2)cc1 [Example 77]	1550	20	365	5	60	0.8	3240	>30	452	6	456	6	122	2	
Cc1ccc(Nc2cc(N3CCCCC3)nc(N(C)CCc3ccccc3)n2)cc1 [Example 22]	2670	>30	1980	>30	128	5	5770	>100	1580	>30	1720	>30	63	2	
O=C1C(=Nc2ccc(Cl)cc2)c2ccccc2N1c1ccccc1 [Example 97, 3-[(4-CHLOROPHENYL)IMINO]-1-PHENYL-1,3-DIHYDRO-2H-INDOL-2-ONE]	11300	>100	5060	>30	25100	>100	4160	>30	45800	>100	1950	>30	10100	>100	
COc1cccc(Nc2cc(N3CCCCC3)nc(N(C)CCc3c[nH]c4ccccc34)n2)c1 [Example 17]	1800	21	407	5	516	6	10300	>100	1170	13	562	6	89	1	
COC[C@@H]1[C@@H](c2ccccc2)OCCN1c1nc(Nc2ccc(C)cc2)cc(N2CCCCC2)n1 [Example 49]		>30		>30		18		>30		>30		>30		2	Ki (human 5HT7; read-out: h5HT7 Ki; Table 7): 12300 nM; Ki (human 5HT1B; read-out: h5HT1B Ki; Table 7): 8450 nM; Ki (human dopamine D1; read-out: hD1 Ki; Table 9): 3780 nM; Ki (human 5HT1F; read-out: h5HT1F Ki; Table 7): 8890 nM; Ki (human α1B adrenoceptor; read-out: hα1B Ki; Table 9): 18900 nM; Ki (rat 5HT2C receptor; read-out: r5HT2C Ki; Table 7): 6690 nM; Ki (dopamine D5 receptor; read-out: hD5 Ki; Table 9): 328 nM
CN(C)c1cc(Nc2ccc(Cl)c(Cl)c2)nc(Nc2ccccc2)n1 [Example 60]	3240	>30	5460	>30	600	7	2120	25	40600	>100	1780	21	538	6	
O=C1C(=Nc2cccc(C(F)(F)F)c2)c2ccccc2N1c1ccccc1 [Example 92, 1-PHENYL-3- [[3-(TRIFLUOROMETHYL)PHENYL]IMINO]-1,3-DIHYDRO-2H-INDOL-2-ONE]				>100		>100		>100		>100				>100	
